Columns and labels:
[1] = molecular target: Protease (Human immunodeficiency virus 1) (UniProt Q9YQ12); assay: Inhibition of HIV1 recombinant protease at 10 uM
[2] = test system: Human immunodeficiency virus 1; assay: Antiviral activity against HIV1; assay type: functional, organism-based
Protease = Protease (Human immunodeficiency virus 1, UniProt Q9YQ12); assay: Inhibition of HIV1 recombinant protease
Chain of Protease (Q9YQ12 whole entry): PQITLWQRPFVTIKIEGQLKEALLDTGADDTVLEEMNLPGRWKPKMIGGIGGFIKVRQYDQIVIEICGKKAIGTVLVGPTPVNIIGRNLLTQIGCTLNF

Chain of Protease (Human immunodeficiency virus 1) (Q9YQ12 as listed by the source): as the sequence (Q9YQ12 whole entry) above

Row | inhibition [1] | IC50 [2] | IC50 (Protease) | Structure (SMILES)
1 | – | 408 nM | 2.5 nM | N=[S+]([O-])(C[C@H](Cc1ccccc1)C(=O)N[C@@H]1c2ccccc2C[C@@H]1O)C[C@H](Cc1ccccc1)C(=O)N[C@@H]1c2ccccc2C[C@@H]1O
2 | – | – | 154 nM | N=[S+]([O-])([C@H](Cc1ccccc1)C(=O)N[C@H]1c2ccccc2C[C@H]1O)[C@H](Cc1ccccc1)C(=O)N[C@H]1c2ccccc2C[C@H]1O
3 | 87% | – | – | N=[S+]([O-])(C(Cc1ccccc1)C(=O)N[C@H]1c2ccccc2C[C@H]1O)C(Cc1ccccc1)C(=O)N[C@H]1c2ccccc2C[C@H]1O (stereo partly specified)
4 | 30% | – | – | O=C(N[C@H]1c2ccccc2C[C@H]1O)C(Cc1ccccc1)S(=O)(=O)C(Cc1ccccc1)C(=O)N[C@H]1c2ccccc2C[C@H]1O (stereo partly specified)
5 | – | – | 37.3 nM | N=[S+]([O-])([C@H](Cc1ccccc1)C(=O)N[C@H]1c2ccccc2C[C@H]1O)[C@@H](Cc1ccccc1)C(=O)N[C@H]1c2ccccc2C[C@H]1O

Further lines, the compound ahead of its results:

Row | Structure (SMILES) | inhibition [1] | IC50 [2] | IC50 (Protease)
6 | O=C(N[C@H]1c2ccccc2C[C@H]1O)C(CSCC(Cc1ccccc1)C(=O)N[C@H]1c2ccccc2C[C@H]1O)Cc1ccccc1 (stereo partly specified) | 15% | – | –
7 | O=C(N[C@H]1c2ccccc2C[C@H]1O)C(Cc1ccccc1)C[S+]([O-])CC(Cc1ccccc1)C(=O)N[C@H]1c2ccccc2C[C@H]1O (stereo partly specified) | 75% | – | –
8 | O=C(N[C@H]1c2ccccc2C[C@H]1O)[C@H](Cc1ccccc1)C[S+]([O-])C[C@H](Cc1ccccc1)C(=O)N[C@H]1c2ccccc2C[C@H]1O | – | – | 53.1 nM
9 | O=C(N[C@H]1c2ccccc2C[C@H]1O)[C@@H](Cc1ccccc1)C[S+]([O-])C[C@H](Cc1ccccc1)C(=O)N[C@H]1c2ccccc2C[C@H]1O | – | – | > 10000 nM
10 | O=C(N[C@@H]1c2ccccc2C[C@@H]1O)[C@@H](Cc1ccccc1)C[S+]([O-])C[C@H](Cc1ccccc1)C(=O)N[C@@H]1c2ccccc2C[C@@H]1O (single isomer, unassigned) | – | – | 21.1 nM
